Measured values: ChEMBL document CHEMBL1127279, “1,3-Oxazino[4,5-b]indole-2,4-(1H,9H)-diones and 5,6-dimethylpyrrolo-[2,3-d]-1,3-oxazin-2,4-(1H,7H)-diones as serine protease inhibitors” (Bioorg Med Chem Lett, 1994)

Tests used:
Neutrophil elastase [1] = molecular target: T1, Neutrophil elastase (Homo sapiens, UniProt P08246); test: In vitro inhibition of human leukocyte elastase.
T1 sequence (P08246 whole entry): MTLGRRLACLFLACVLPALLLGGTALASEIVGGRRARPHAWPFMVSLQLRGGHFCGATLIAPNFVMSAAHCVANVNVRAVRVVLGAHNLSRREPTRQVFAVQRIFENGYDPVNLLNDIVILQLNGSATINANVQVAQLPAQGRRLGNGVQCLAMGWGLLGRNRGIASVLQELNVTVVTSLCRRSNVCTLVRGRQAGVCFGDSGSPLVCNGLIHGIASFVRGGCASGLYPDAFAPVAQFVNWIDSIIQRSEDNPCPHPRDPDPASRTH

Pancreatic elastase = Pancreatic elastase (Sus scrofa, UniProt P08419+P00772); test: Inhibitory activity against porcine pancreatic elastase using Suc-Ala-Ala-Ala-pNA (416 uM) as substrate; format: protein assay
Chymotrypsinogen A [2] = molecular target: T2, Chymotrypsinogen A (Bos taurus, UniProt P00766); test: Inhibitory activity against chymotrypsin using Suc-Ala-Ala-Pro-Phe-pNA (416 uM) as substrate;No Inhibition; set-up: species or system Sus scrofa
Chymotrypsinogen A [3] = molecular target: T2, Chymotrypsinogen A; test: Inhibitory activity against chymotrypsin using Suc-Ala-Ala-Pro-Phe-pNA (416 uM) as substrate; No Inhibition; set-up: species or system Sus scrofa
Neutrophil elastase [4] = molecular target: T1, Neutrophil elastase; test: Inhibitory activity against human leukocyte elastase using MeO-Suc-Ala-Ala-Pro-Val-pNA (416 uM) as substrate;No Inhibition
Neutrophil elastase [5] = molecular target: T1, Neutrophil elastase; test: Inhibitory activity against human leukocyte elastase using MeO-Suc-Ala-Ala-Pro-Val-pNA (416 uM) as substrate
Chymotrypsinogen A [6] = molecular target: T2, Chymotrypsinogen A; test: Inhibitory activity against chymotrypsin using Suc-Ala-Ala-Pro-Phe-pNA (416 uM) as substrate; set-up: species or system Sus scrofa

Structure (SMILES)	IC50 (Neutrophil elastase [1]) [µM]	further results
CCCn1c2ccc(OC)cc2c2c(=O)oc(=O)[nH]c21	> 1000	
CC(=O)Oc1ccc2c(c1)c1c(=O)oc(=O)[nH]c1n2CCCc1ccccc1	305	IC50 (Pancreatic elastase): > 1000 µM
CC(=O)Oc1ccc2c(c1)c1c(=O)oc(=O)[nH]c1n2Cc1ccccc1	75	
CC(=O)Oc1ccc2c(c1)c1c(=O)oc(=O)[nH]c1n2C1CCCCC1	454	
CCCCn1c2ccc(OC(C)=O)cc2c2c(=O)oc(=O)[nH]c21	810	IC50 (Pancreatic elastase): > 1000 µM
COC(Cn1c2ccc(OC(C)=O)cc2c2c(=O)oc(=O)[nH]c21)OC	742	
COCCn1c2ccc(OC(C)=O)cc2c2c(=O)oc(=O)[nH]c21	> 1000	IC50 (Chymotrypsinogen A [2]): Not Active
COC(Cn1c(C)c(C)c2c(=O)oc(=O)[nH]c21)OC		IC50 (Chymotrypsinogen A [3]): Not Active; IC50 (Neutrophil elastase [4]): Not Active
Cc1c(C)n(Cc2ccccn2)c2[nH]c(=O)oc(=O)c12		IC50 (Neutrophil elastase [4]): Not Active
COc1ccc2c(c1)c1c(=O)oc(=O)[nH]c1n2CCc1ccccc1		IC50 (Neutrophil elastase [5]): > 1000 µM
CCCCn1c(C)c(C)c2c(=O)oc(=O)[nH]c21	> 1000	
CCCn1c(C)c(C)c2c(=O)oc(=O)[nH]c21		IC50 (Chymotrypsinogen A [3]): Not Active; IC50 (Neutrophil elastase [4]): Not Active
COc1ccc2c(c1)c1c(=O)oc(=O)[nH]c1n2Cc1ccccc1	> 1000	
CC(=O)Oc1ccc2c(c1)c1c(=O)oc(=O)[nH]c1n2CCc1ccccc1	92	IC50 (Pancreatic elastase): 833 µM
Cc1c(C)n(CCCc2ccccc2)c2[nH]c(=O)oc(=O)c12		IC50 (Neutrophil elastase [4]; read-out: IC50): 895 µM
COc1ccc2c(c1)c1c(=O)oc(=O)[nH]c1n2CC(OC)OC	> 1000	
COCCn1c2ccc(OC)cc2c2c(=O)oc(=O)[nH]c21	> 1000	IC50 (Chymotrypsinogen A [3]): Not Active
Cc1c(C)n(Cc2ccccc2)c2[nH]c(=O)oc(=O)c12		IC50 (Neutrophil elastase [4]): Not Active
CC(=O)Oc1ccc2c(c1)c1c(=O)oc(=O)[nH]c1n2Cc1ccccn1	292	
Cc1c(C)n(CCc2ccccc2)c2[nH]c(=O)oc(=O)c12		IC50 (Neutrophil elastase [4]): Not Active
COc1ccc2c(c1)c1c(=O)oc(=O)[nH]c1n2Cc1ccccn1	> 1000	IC50 (Chymotrypsinogen A [6]): 512 µM
COc1ccc2c(c1)c1c(=O)oc(=O)[nH]c1n2CCCc1ccccc1		IC50 (Neutrophil elastase [5]): 989 µM
Cc1c(C)n(C2CCCCC2)c2[nH]c(=O)oc(=O)c12	> 1000	
CCCn1c2ccc(OC(C)=O)cc2c2c(=O)oc(=O)[nH]c21	665	
COc1ccc2c(c1)c1c(=O)oc(=O)[nH]c1n2C1CCCCC1	> 1000	
CCCCn1c2ccc(OC)cc2c2c(=O)oc(=O)[nH]c21	> 1000	
COCCn1c(C)c(C)c2c(=O)oc(=O)[nH]c21		IC50 (Chymotrypsinogen A [3]): Not Active; IC50 (Neutrophil elastase [4]): Not Active
